# Measured values taken from patent publication US20130052654A1, “Amyloid Precursor Protein E2 Domain and Uses Thereof” (Leibniz Institute For Age Research - Fritz Lipmann …, priority 2011, published 2013).
# “And” between values parts separate entries of the source, which are not always exact repeats. Equal values may be shown once. Read-outs that look alike come from different tables or passages of the source. Marks after values point to notes of the source that are not given here.
# Assays:
# APP-E2 [1] = molecular target: T1, APP-E2 (Homo sapiens, UniProt P05067); assay: GPC and GPC coupled SLS, oligomerization state with heparin; assay type: binding; conditions: 50 μM APP-E2, 100 μM heparin; for MWSLS of APP-E2: GPC coupled SLS, absolute molecular weight; for MWrh of APP-E2: GPC, apparent molecular weight
# T1 construct: APP-E2 comprising Ser295-Asp500 (numbering according to APP695); hexa-histidine tag (C, cleaved yes); made in house; host or cells: E. coli BL21(DE3)pRIL
# Method: Analytical GPC and SLS studies were performed in 150 mM NaCl, 10 mM Sodium phosphate buffer, pH 7.3, on a calibrated (MWGF70, Sigma) Superdex200 10/300 GL column (GE Healthcare) using 50 μM APP-E2. Where applicable, a ˜3.6 kDa heparin preparation (Reviparin-Sodium, Abott) was added at 100 μM to the protein and the buffer. SLS data were recorded using VE 3580 RI and 270 Dual detectors (Viscotek, USA) and analyzed using software provided by the manufacturer. Given data represent average values±standard deviation of three independent experiments.
# APP-E2 [2] = molecular target: T1, APP-E2; assay: Isothermal titration calorimetry (ITC) of metal binding to APP-E2; conditions: for n1: ITC stoichiometry, first site; for dH1: Cu in Tris, Zn in Hepes, pH 7.3
# Method: ITC was performed at the same conditions as the metal retention assays in a NANO ITC calorimeter (TA Instruments, USA) adding 0.4 mM CuCl2 in 6 μl injections or 0.4 mM ZnCl2 in 11 μl injections to the cell containing 40 μM protein. Blank enthalphies for titrations of metals in buffer were subtracted from peak integrals. Binding constants were calculated with the NanoAnalyze program (TA Instruments, USA) using a model for a single set of identical binding sites in the case of copper binding. In the case of zinc binding the enthalpic data were fitted to a binding model representing two sets of independent binding sites, accounting for 1 strong binding site and 3.3 weak binding sites (4.3 total Zn^2+ sites) per protein molecule (for further details see supplementary data). All titrations were performed in triplicate. The initially determined KDapp of the APP-E2/Cu complex had to be corrected for competition with the copper ligand Tris (Hatcher et al., 2008) and its pH-dependent protonation. The exact coordination chemistry of Cu^2+ by Tris is, unfortunately, not precisely known, e.g. tertiary Cu(Tris)2 and quinary Cu(Tris)4 complexes are described in the literature. However, all models agree about the formation of a binary Tris-Cu^2+ complex, described by a formation constant pK1(Tris) of ˜4. The corrected KD was calculated according to KD=KDapp(1+ cTris×10^pK^1(Tris)/(1+10^−pH×Ka))^−1 using pK1(Tris)=3.82 (Canepari et al., 1999) and pKa(Tris)=8.1.
# The effect of excessive zinc to protein ratios was studied in ITC experiments in three repeating titrations into the same cell solution. Titration was performed in 20 mM Hepes/NaOH pH 7.3, 150 mM NaCl at 20° C., adding a 0.8 mM ZnCl2 solution in 3×22 injections to 40 μM APP-E2, resulting in a final Zn^2+/protein ratio of 22. The molar ratios for titration experiment 2 and 3 were calculated neglecting intermixture of cell volume and slight volume changes occurring after refill of the syringe. Blank enthalphies for titrations of metals in buffer were subtracted from peak integrals.
# APP-E2 [3] = molecular target: T1, APP-E2; assay: CD-spectroscopy melting curves of APP-E2 at 222 nm; assay type: binding; conditions: 7.5 μM APP-E2, 10 μM metal; inflection point of CD melting curve at 222 nm
# Method: CD-data were collected on a J-710 spectropolarimeter (Jasco Corporation) in the same buffers used for ITC binding studies adding 7.5 μM APP-E2 and 10 μM zinc or copper. CD-signals were measured at 222 nm upon heating (1° C./min) of the samples from 20° C. to 90° C. The blank signals produced by the buffers at 20° C. were subtracted as constant values from the melting curves. Indicated melting points correspond to the inflection points of the melting curves determined from the peak of the 1st order derivative calculated using spectra analysis software (Jasco Corporation).
# APP-E2 [4] = molecular target: T1, APP-E2; assay: Determination of total Zn2+ binding sites on APP-E2
# Method: The protein was saturated with 10 mM ZnCl2 in 20 mM Hepes/NaOH pH 7.3, 150 mM NaCl resulting in quantitative precipitated of the protein. The precipitate was washed with buffer until a stable equilibrium ratio of zinc saturated protein in the liquid phase and the solid phase was reached. The concentration of Zn (Sabel et al., 2010) and protein (Bradford, 1976) were determined after each wash step in the liquid phase (supernatant) after […] centrifugation at 16,000 g. The ratio between [Zn^2+] and [APP-E2] at equilibrium conditions corresponds to the total number of zinc binding sites per protein molecule, which was determined to be 4.3+/−0.2 (FIG. 10B). Subtraction of one strong intra-molecular binding site yields the number of intermolecular binding sites of as 3.3.
# APP-E2 [5] = molecular target: T1, APP-E2; assay: Metal retention assay (ultrafiltration); assay type: binding; conditions: 50 μM APP-E2, 75 μM metal, concentrated 8-fold
# Method: 50 μM APP-E2 (without His-tag) and 75 μM CuCl2 in 50 mM Tris/HCl pH 7.3, 150 mM NaCl or 75 μM ZnCl2 in 20 mM Hepes/NaOH pH 7.3, 150 mM NaCl was concentrated 8-fold at 20° C. using Vivaspin 500 ultrafiltration devices with 5.000 MWCO PES membranes (Sartorius stedim biotech). Samples without protein, or containing 50 μM lysozyme instead of APP-E2, served as controls. Metal ions in the retenate were quantified by a spectrophotometric method (Sabel et al., 2010). Each experiment was performed in triplicate and the average ratio of the change in concentration relative to the starting concentration (c-c0/c0) was plotted.
# APP-E2 [6] = molecular target: T1, APP-E2; assay: Limited proteolysis with Trypsin; assay type: biochemical; conditions: 40 μM metal, 20 μM protein, 0.5 μg/ml Trypsin
# Method: Limited proteolysis was performed in 20 mM HEPES, 150 mM NaCl at pH 7.4 containing 0.5 μg/ml Trypsin (Calbiochem) and 20 μM purified protein (α-casein as control). Copper or zinc were supplemented at 40 μM to the Samples. Reactions were stopped after 30 and […] by addition of 10 mM PMSF and analyzed by SDS-PAGE. Protease cleavage sites were characterized by Edman sequencing (Procise 494A, Applied Biosystems, Foster City, Calif., USA). Limited proteolysis results shown were reproduced in three independent experiments.
# full length APP = molecular target: T2, full length APP (Homo sapiens, UniProt P05067); conditions: cited from earlier work
# T2 construct: previously reported for full length APP (0.75 μM) (Bush et al., 1993)
# [7] = molecular target: the molecule itself; assay: gel permeation chromatography and GPC-coupled static light scattering, without and with low molecular weight heparin (self-association test)
# Method: All intermolecular contacts identified in the crystals analysed with the PISA server (Krissinel and Henrick, 2007) result from crystal packing, evidenced by the calculated complexation significance scores (CSS) that are equal to 0. Consequently, the protomer contacts are predominantly stabilized by the intermolecular coordinated cadmium ions. […] To investigate this observation further, the apparent molecular weight was determined based on the hydrodynamic radius (MWᵣₕ) using gel permeation chromatography (GPC) as well as the absolute molecular weight (MWSLS) employing GPC coupled static light scattering (SLS; Supplementary Figure S2). […] The influence of heparin on the oligomerization state of the E2 domain, which was described to promote dimer formation (Lee et al., 2011), was tested.
# T2 sequence (P05067 18-770, species assumed): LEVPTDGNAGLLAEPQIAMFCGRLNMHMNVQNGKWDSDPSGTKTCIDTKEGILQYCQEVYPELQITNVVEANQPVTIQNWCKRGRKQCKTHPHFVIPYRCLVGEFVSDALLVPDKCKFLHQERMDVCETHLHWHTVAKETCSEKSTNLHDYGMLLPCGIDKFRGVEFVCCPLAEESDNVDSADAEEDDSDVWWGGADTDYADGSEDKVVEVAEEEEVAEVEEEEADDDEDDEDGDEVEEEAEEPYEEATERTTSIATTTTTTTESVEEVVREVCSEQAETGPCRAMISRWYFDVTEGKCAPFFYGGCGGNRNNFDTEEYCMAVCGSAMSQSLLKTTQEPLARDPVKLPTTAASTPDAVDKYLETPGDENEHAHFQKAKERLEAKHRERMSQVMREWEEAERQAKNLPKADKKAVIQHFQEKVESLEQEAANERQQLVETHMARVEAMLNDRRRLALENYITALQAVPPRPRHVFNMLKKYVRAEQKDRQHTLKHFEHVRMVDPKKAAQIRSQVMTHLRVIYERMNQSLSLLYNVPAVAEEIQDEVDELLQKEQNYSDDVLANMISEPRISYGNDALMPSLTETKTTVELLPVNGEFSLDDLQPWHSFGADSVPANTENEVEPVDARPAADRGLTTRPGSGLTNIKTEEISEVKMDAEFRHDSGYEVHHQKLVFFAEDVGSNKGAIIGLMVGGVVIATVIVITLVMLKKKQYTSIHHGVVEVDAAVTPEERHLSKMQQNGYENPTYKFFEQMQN
molecule,measurement,setting,value
Reviparin-Sodium [HP],MWSLS of APP-E2,APP-E2 [1],31.6 ± 0.2 kDa
same,MWSLS of APP-E2,APP-E2 [1]; listed as Clivarin,31.6 kDa
same,MWrh of APP-E2,APP-E2 [1],39.2 ± 0.4 kDa
same,MWrh of APP-E2,APP-E2 [1]; listed as Clivarin,39.2 kDa
"[Zn+2] [Zn^2+, zinc]",exothermic zinc binding reaction with copper pre-saturated APP-E2,APP-E2 [2]; ITC competition,completely missing
same,n1,APP-E2 [2],0.7 ± 0.2
same,Kd,"APP-E2 [2]; ITC, 20 mM Hepes/NaOH pH 7.3, 150 mM NaCl, two sets of independent sites, strong site, listed as zinc, read-out: KD1, Zn-APP-E2",≤ 3.9 µM
same,Kd,"APP-E2 [2]; ITC, 20 mM Hepes/NaOH pH 7.3, 150 mM NaCl, two sets of independent sites, strong site, read-out: KD1, Zn-APP-E2",3.9 ± 1.5 µM
same,Kd,"APP-E2 [2]; ITC, Hepes pH 7.3, weak sites, not statistically significant in curve fit, listed as zinc, read-out: KD2, Zn-APP-E2",≤ 2600 µM
same,Kd,"APP-E2 [2]; ITC, Hepes pH 7.3, weak sites, not statistically significant in curve fit, read-out: KD2, Zn-APP-E2",2600 µM
same,dH1,APP-E2 [2]; ITC,-3.97 ± 0.14 kcal/mol
same,n2,"APP-E2 [2]; weak sites, determined independently and fixed during curve fit",3.3^b
same,melting temperature of APP-E2,APP-E2 [3],64.2±0.3 °C
same,total number of zinc binding sites per protein molecule,APP-E2 [4]; ratio [Zn2+]/[APP-E2] at equilibrium after wash steps,4.3+/−0.2 and 4.3
same,number of weak (intermolecular) zinc binding sites,APP-E2 [4]; total minus one strong intramolecular site,3.3
same,retention of metal ions upon APP-E2 concentration,APP-E2 [5],accumulated in the retenate
same,effect on Trypsin cleavage of APP-E2,APP-E2 [6],Trypsin cleavage at Arg385 completely disappeared
same,Kd,"full length APP; Bush et al., 1993, read-out: dissociation constant for full length APP (zinc)",0.75 µM
"[Cu+2] [Cu^2+, copper]",n1,APP-E2 [2],0.70 ± 0.03
same,dH1,APP-E2 [2]; ITC,-4.76 ± 0.22 kcal/mol
same,Kd,"APP-E2 [2]; intersection point with the ordinate, 15-75 mM Tris, read-out: KD from linear extrapolation of apparent KD as function of Tris concentration",~0.02 µM
same,Kd,"APP-E2 [2]; minimal model of a Cu2+-Tris 1:1 complex, upper (weakest) limit, listed as copper, read-out: KD corrected for Tris competition",≤ 0.013 µM
same,Kd,"APP-E2 [2]; minimal model of a Cu2+-Tris 1:1 complex, upper (weakest) limit, read-out: KD corrected for Tris competition",< 0.013 µM
same,melting temperature of APP-E2,APP-E2 [3],61.0±0.0 °C
same,retention of metal ions upon APP-E2 concentration,APP-E2 [5],accumulated in the retenate
same,effect on Trypsin cleavage of APP-E2,APP-E2 [6],stabilizes especially fragment 1
same,Kd,"full length APP; Hesse et al., 1994, read-out: dissociation constant for full length APP (copper)",0.01 µM
"APP-E2 comprising Ser295-Asp500 (numbering according to APP695) (other, The C-terminal His tag was cleaved for the biochemical studies; also called E2 domain; human APP-E2 domain; not shown: a few non-native C-terminal residues left after the hexa-histidine tag was cleaved off (factor Xa or V8 protease); their) STPDAVDKYLETPGDENEHAHFQKAKERLEAKHRERMSQVMREWEEAERQAKNLPKADKKAVIQHFQEKVESLEQEAANERQQLVETHMARVEAMLNDRRRLALENYITALQAVPPRPRHVFNMLKKYVRAEQKDRQHTLKHFEHVRMVDPKKAAQIRSQVMTHLRVIYERMNQSLSLLYNVPAVAEEIQDEVDELLQKEQNYSDD",binding result,[7],no binding (tested: 50 µM APP-E2)
